Measurements from the NIST ThermoML archive (doi:10.1016/j.fluid.2010.10.028).

Test: xn = mol fraction of the nth substance listed
Settings: Liquid, Vibrating tube method

CC(C)=O [acetone] + CCCCCCC
Settings	mass density [kg/m3]
337.71 K, 24950 kPa, x1 = 0.4	746.11
337.71 K, 24950 kPa, x1 = 0.8992	746.11
337.71 K, 29870 kPa, x1 = 0.801	735.19
337.71 K, 29930 kPa, x1 = 0.4	751.13
337.71 K, 29930 kPa, x1 = 0.8992	751.13
337.71 K, 34930 kPa, x1 = 0.4	755.89
337.71 K, 34930 kPa, x1 = 0.8992	755.89
337.71 K, 39920 kPa, x1 = 0.4	760.43
337.71 K, 39920 kPa, x1 = 0.8992	760.43
337.71 K, 44840 kPa, x1 = 0.492	715.3
337.71 K, 49900 kPa, x1 = 0.4	768.86
337.71 K, 49900 kPa, x1 = 0.8992	768.86
337.71 K, 54890 kPa, x1 = 0.4	772.81
337.71 K, 54890 kPa, x1 = 0.8992	772.81
337.71 K, 64860 kPa, x1 = 0.4	780.28
337.71 K, 64860 kPa, x1 = 0.8992	780.28
337.71 K, 69930 kPa, x1 = 0.492	733.51
337.71 K, 74770 kPa, x1 = 0.7024	757.51
337.71 K, 74840 kPa, x1 = 0.4	787.15
337.71 K, 74840 kPa, x1 = 0.8992	787.15
337.71 K, 74910 kPa, x1 = 0.492	736.73
337.71 K, 79750 kPa, x1 = 0.7024	760.71
337.71 K, 79820 kPa, x1 = 0.4	790.43
337.71 K, 79820 kPa, x1 = 0.8992	790.43
337.71 K, 79900 kPa, x1 = 0.492	739.82
337.71 K, 84890 kPa, x1 = 0.492	742.8
337.71 K, 89860 kPa, x1 = 0.801	780.47
337.71 K, 89870 kPa, x1 = 0.492	745.68
337.71 K, 94760 kPa, x1 = 0.4	799.66
337.71 K, 94760 kPa, x1 = 0.8992	799.66
337.71 K, 94820 kPa, x1 = 0.611	759.24
337.71 K, 94840 kPa, x1 = 0.492	748.47
337.71 K, 94840 kPa, x1 = 0.801	783.46
337.71 K, 99730 kPa, x1 = 0.4	802.55
337.71 K, 99730 kPa, x1 = 0.8992	802.55
337.71 K, 99820 kPa, x1 = 0.492	751.17
337.71 K, 104700 kPa, x1 = 0.4	805.37
337.71 K, 104700 kPa, x1 = 0.8992	805.37
337.71 K, 104790 kPa, x1 = 0.611	764.72
337.71 K, 104800 kPa, x1 = 0.492	753.81
337.71 K, 104800 kPa, x1 = 0.801	789.1
337.71 K, 109680 kPa, x1 = 0.4	808.11
337.71 K, 109680 kPa, x1 = 0.8992	808.11
337.71 K, 109770 kPa, x1 = 0.492	756.37
337.71 K, 109850 kPa, x1 = 0.611	767.36
337.71 K, 114650 kPa, x1 = 0.4	810.79
337.71 K, 114650 kPa, x1 = 0.8992	810.79
337.71 K, 114850 kPa, x1 = 0.492	758.9
337.71 K, 114860 kPa, x1 = 0.611	769.89
337.71 K, 119620 kPa, x1 = 0.4	813.4
337.71 K, 119620 kPa, x1 = 0.8992	813.4
337.71 K, 119840 kPa, x1 = 0.492	761.32
337.71 K, 124840 kPa, x1 = 0.492	763.7
337.71 K, 124850 kPa, x1 = 0.801	799.52
337.71 K, 129550 kPa, x1 = 0.4	818.42
337.71 K, 129550 kPa, x1 = 0.8992	818.42
337.71 K, 129840 kPa, x1 = 0.801	801.97
337.71 K, 129850 kPa, x1 = 0.492	766
337.72 K, 44910 kPa, x1 = 0.4	764.73
337.72 K, 44910 kPa, x1 = 0.8992	764.73
337.72 K, 59870 kPa, x1 = 0.4	776.58
337.72 K, 59870 kPa, x1 = 0.8992	776.58
337.72 K, 84800 kPa, x1 = 0.4	793.6
337.72 K, 84800 kPa, x1 = 0.8992	793.6
337.72 K, 89780 kPa, x1 = 0.4	796.66
337.72 K, 89780 kPa, x1 = 0.8992	796.66
337.72 K, 99810 kPa, x1 = 0.611	762.02
337.72 K, 124590 kPa, x1 = 0.4	815.94
337.72 K, 124590 kPa, x1 = 0.8992	815.94
337.72 K, 124870 kPa, x1 = 0.611	774.78
337.72 K, 129860 kPa, x1 = 0.611	777.16
347.61 K, 960 kPa, x1 = 0.7024	676.19
347.61 K, 4840 kPa, x1 = 0.7024	682.43
347.61 K, 9820 kPa, x1 = 0.7024	689.72
347.61 K, 14820 kPa, x1 = 0.7024	696.37
347.61 K, 19810 kPa, x1 = 0.7024	702.46
347.61 K, 24790 kPa, x1 = 0.7024	708.14
347.61 K, 29890 kPa, x1 = 0.7024	713.58
347.61 K, 34890 kPa, x1 = 0.7024	718.57
347.61 K, 39880 kPa, x1 = 0.7024	723.29
347.61 K, 44870 kPa, x1 = 0.7024	727.75
347.61 K, 49860 kPa, x1 = 0.7024	731.98
347.61 K, 54840 kPa, x1 = 0.7024	736.03
347.61 K, 59830 kPa, x1 = 0.7024	739.91
347.61 K, 64820 kPa, x1 = 0.7024	743.63
347.61 K, 69810 kPa, x1 = 0.7024	747.19
347.61 K, 74800 kPa, x1 = 0.7024	750.62
347.61 K, 79780 kPa, x1 = 0.7024	753.92
347.61 K, 84760 kPa, x1 = 0.7024	757.12
347.61 K, 89750 kPa, x1 = 0.7024	760.21
347.61 K, 94730 kPa, x1 = 0.7024	763.2
